Converted amounts (≈) assume the structure as drawn.
How the values were obtained:
S. costatum [1] = assay: Algicidal activity assay, EC50; format: cell-based, Skeletonema costatum; details: Skeletonema costatum; Mean ± SD, n = 3; read-out: EC50 S. costatum
Description: (§1) P. minimum, A. pacificum, and S. costatum were purchased from Guangyu Biological Technology Co., Ltd. (Shanghai, China). The algae strain was cultured in F/2 medium ((12 h light: 12 h dark cycle), 20 ± 1 °C, 70 μmol m^−2 s^−1). Purchased algae were transferred to sterile conical flasks for culture; after the algae proliferation was stabilized, the expanded culture was next carried out following standard conditions.
(§2) Copper sulfate and Diuron were used as the positive controls. EC50 values were calculated according to the equation of the quantity–effect relationship in Equation (2) using the Hill model of Graph Pad Prism software (8.0.2). (2) Y=Bottom+(Top-Bottom)/1+10^(Log EC50-X)×Hill Slope
(§3) The X and Y values represent the concentration (mg/L) and response values of the control and experimental groups, respectively. The Top, Bottom, and Hill Slope represent the maximum response, minimum response, and the curve slope, respectively. The EC50 represents half of the maximum effective concentration.

A. pacificum [2] = assay: Algicidal activity assay, EC50; format: cell-based, Alexandrium pacificum; details: for EC50: Alexandrium pacificum, Mean ± SD, n = 3
Description: as §1, §2, §3

P. minimum [3] = assay: Algicidal activity assay, EC50; format: cell-based, Prorocentrum minimum; details: for EC50: Prorocentrum minimum, Mean ± SD, n = 3, read-out: EC50 P. minimum
Description: as §1, §2, §3

A. pacificum [4] = assay: Growth-inhibition rate measurement at 50 mg/L, 24 h; format: cell-based, Alexandrium pacificum; details: Alexandrium pacificum, read-out: inhibition rate against A. pacificum
Description: as §1
(§4) The stock solutions of bacillamide A and different BDs were prepared in dimethyl sulfoxide (DMSO) with the requisition amount. […] The controls received the same volume of DMSO. The inhibitory activities of bacillamide A, different BDs, and positive controls were screened by 96 well microtiter plates at different concentrations. Inhibition ratios (IRs) of cupric sulfate (50 mg/L, positive control), bacillamide A (50 mg/L), and BDs (50 mg/L) were calculated on algae using Equation (1). (1) IR=Cc0-Cex/Cc0×100%
(§5) The CC0 and Cex, respectively, represent the algal densities of the control and experimental groups.

zebrafish = assay: Zebrafish acute toxicity assay; format: in vivo
Description: Zebrafish acute toxicity of bacillamide A and synthesized BDs were evaluated at 0.1 mg/L, 1 mg/L, and 10 mg/L, respectively. Diuron and CuSO4 were used as positive controls. The commercial zebrafish (body length > 3.0 cm) were domesticated in aerated tap water for 24 h, fed once daily for seven consecutive days, and stopped being fed before the experiment.
4. Acute toxicity table S1.
Compound Concentration Survival percent Acute
aAccording to the Guide for Environmental Safety Assessment of Chemical Pesticides
4 groups and treated with different compounds for 96 h.

PSII in P. minimum = assay: Quantum yield Fv/Fm of PSII; format: cell-based, Prorocentrum minimum; details: 10 mg/L, 72 h, versus negative control
Description: (§6) P. minimum, S. costatum, and A. pacificum cells were cultured in F/2 medium. All flasks were cultivated under 12 h of light: 12 h of dark and 70 μmol m^−2 s^−1 at 20 ± 1 °C. […] Finally, the algal cells were collected and diluted in 6 mL of phosphate buffer (pH = 7.8). A small amount of quartz sand was added into the algal cells under ice bath. The obtained homogenate was next poured into a centrifuge tube and centrifuged at 5000 r/min for 25 min at 4 °C. The obtained supernatant was placed in the refrigerator at 4 °C for the next step experiment.
(§7) Fv/Fm values were determined by using AquaPen handheld algae fluorescence meter (Nanjing Mingao Instrument Co., Ltd., Nanjing, China). The algae cells were darkened for 30 min and Fv/Fm values were measured.

PSII in S. costatum = assay: Quantum yield Fv/Fm of PSII; format: cell-based, Skeletonema costatum; details: 10 mg/L, 72 h, versus negative control
Description: as §6, §7

P. minimum [5] = assay: MDA level (thiobarbituric acid assay kit); format: cell-based, Prorocentrum minimum; details: 10 mg/L, 72 h, versus control (DMSO)
Description: as §6
(§8) The malondialdehyde (MDA) assay kit was purchased from Lvyuandade Biochemical Co, Ltd., Beijing, China. The MDA parameter was monitored according to the procedure provided by the manufacturer. A total of 1 mL of algal extract was mixed with thiobarbituric acid solution (2 mL, 0.6%). The solution was sealed and kept in a boiling water bath for 15 min, followed by being cooled and centrifuged at 4500 r/min for 10 min. The absorbance values of collected supernatant were measured and calculated by the Formula (3) at 600 nm, 532 nm, and 450 nm:MDA content (nmol∙mgprot^−1) = 6.45 × (A532 − A600) − 0.56 × A450(3)

S. costatum [6] = assay: MDA level (thiobarbituric acid assay kit); format: cell-based, Skeletonema costatum; details: 10 mg/L, 72 h, versus control (DMSO)
Description: as §6, §8

[7] = tested on: other microalgae (e.g., diatoms, cyanobacteria, green algae); set-up: method as in doi:10.1016/j.tetlet.2003.08.115, PMID 17454826; details: cited from earlier work
Salmonella choleraesuis = tested on: Salmonella choleraesuis; set-up: method as in PMID 32483303; details: cited from earlier work
Vibrio cholerae = tested on: Vibrio cholerae; set-up: method as in PMID 32483303; details: cited from earlier work
Alternaria sp. = tested on: Alternaria sp.; set-up: method as in PMID 32483303; details: cited from earlier work
S. costatum [8] = assay: Growth-inhibition rate measurement at 50 mg/L, 24 h; format: cell-based, Skeletonema costatum
Description: as §1, §4, §5

P. minimum [9] = assay: as above; format: cell-based, Prorocentrum minimum; details: Prorocentrum minimum, read-out: inhibition rate against P. minimum
Description: as §1, §4, §5

S. costatum [10] = assay: Observation of cellular morphology (optical microscope, SEM); format: cell-based, Skeletonema costatum; details: 10 mg/L, 4 h
Description: (§9) There were morphological changes of algae cells treated by bacillamide A, BDs, and the positive control (CuSO4). […] Cell samples were centrifuged at 12,000 rpm for 10 min, collected, fixed, gradient-dehydrated, and freeze-dried after gold coating following the reported procedure. The SEM analyses were performed by scanning electron microscopy (SEM, JSM-7900F, […], Tokyo, Japan).

P. minimum [11] = assay: as above; format: cell-based, Prorocentrum minimum; details: 10 mg/L, 4 h
Description: as §9

A. pacificum [12] = assay: Observation of cellular morphology (optical microscope); format: cell-based, Alexandrium pacificum; details: 10 mg/L, 4 h
P. minimum [13] = assay: ROS level (DCFH-DA fluorescent probe assay); format: cell-based, Prorocentrum minimum; details: 10 mg/L, 72 h
Description: as §6
(§10) The reactive oxygen species (ROS) assay kit was purchased from SolarBio Co., Ltd., Beijing, China. The 2′,7′-dichlorodihydrofluorescein diacetate (DCFH-DA) could be oxidized by reactive oxygen or nitrogen species (ROS/RNS) to generate high fluorescent 2′,7′-dichlorofluoroscein (DCF). DCF could be detected by Cyto-FLEX flow cytometry.

S. costatum [14] = assay: ROS level (DCFH-DA fluorescent probe assay); format: cell-based, Skeletonema costatum; details: 10 mg/L, 72 h
Description: as §6, §10

SMILES | EC50 (S. costatum [1]) | EC50 (A. pacificum [2]) | EC50 (P. minimum [3]) | inhibition at 50 µg/mL (A. pacificum [4]) | Survival percent (zebrafish; zebrafish, 0.1 mg/L, 0h) | Survival percent (zebrafish; zebrafish, 0.1 mg/L, 24h) | Survival percent (zebrafish; zebrafish, 0.1 mg/L, 48h) | Survival percent (zebrafish; zebrafish, 0.1 mg/L, 72h) | Survival percent (zebrafish; zebrafish, 0.1 mg/L, 96h) | Survival percent (zebrafish; zebrafish, 1 mg/L, 0h) | Survival percent (zebrafish; zebrafish, 1 mg/L, 24h) | Survival percent (zebrafish; zebrafish, 1 mg/L, 48h) | Survival percent (zebrafish; zebrafish, 1 mg/L, 72h) | Survival percent (zebrafish; zebrafish, 1 mg/L, 96h) | Survival percent (zebrafish; zebrafish, 10 mg/L, 0h) | Survival percent (zebrafish; zebrafish, 10 mg/L, 24h) | Survival percent (zebrafish; zebrafish, 10 mg/L, 48h) | Survival percent (zebrafish; zebrafish, 10 mg/L, 72h) | Survival percent (zebrafish; zebrafish, 10 mg/L, 96h) | decrease of Fv/Fm of PSII in P. minimum (PSII in P. minimum) | other results
CC(=O)c1nc(C(=O)NCCc2c[nH]c3ccccc23)cs1 [bacillamide A] | 2.51 ± 0.09 µg/mL (≈ 8.01 µM) | 2.17 ± 0.31 µg/mL (≈ 6.92 µM) | 3.93 ± 0.28 µg/mL (≈ 12.5 µM) | 55.3% | 100 | 100 | 100 | 100 | 100 | 100 | 100 | 87 | 83 | 83 | 100 | 100 | 100 | 100 | 100 | 2 fold | Acute toxicity (zebrafish; zebrafish, class by GB/T31270.12, LC50 (96 h)): low (LC50 (96 h) > 10 mg/L, low toxicity); decrease of quantum yield Fv/Fm of PSII in S. costatum (PSII in S. costatum): 4 fold; increase of MDA levels in P. minimum (P. minimum [5]): 2.0 fold; increase of MDA levels in S. costatum (S. costatum [6]): 2.6 fold; algicidal activities against other microalgae [7]: did not display algicidal activities; antibacterial activity (Salmonella choleraesuis): moderate antibacterial activity; antibacterial activity (Vibrio cholerae): moderate antibacterial activity; antifungal activity (Alternaria sp.): slight antifungal activity
CCCCc1nc(C(=O)NCCc2c[nH]c3ccccc23)cs1 [Compound 6j] | 0.3 ± 0.02 µg/mL (≈ 0.916 µM) | 0.47 ± 0.25 µg/mL (≈ 1.44 µM) | 1 ± 0.11 µg/mL (≈ 3.05 µM) | 70 to 95% | 100 | 100 | 100 | 100 | 100 | 100 | 100 | 100 | 80 | 80 | 100 | 80 | 0 | 0 | 0 | 3 fold | fold more potent than natural bacillamide A, Diuron, and CuSO4 (A. pacificum [2]; from EC50 against A. pacificum): 3–5 fold; fold more potent than natural bacillamide A, Diuron, and CuSO4 (P. minimum [3]; from EC50 against P. minimum): 3–5 fold; inhibition rate against S. costatum (S. costatum [8]): 81.7%; inhibition at 50 µg/mL (S. costatum [8]; Skeletonema costatum, read-out: inhibition rate against S. costatum): > 70%; inhibition at 50 µg/mL (P. minimum [9]): 71.9%; mortality in zebrafish (zebrafish; 10 mg/L, treatment for more than 48 h): 100%; cell morphology of S. costatum, micrographs (S. costatum [10]): broken or damaged or both; cell morphology of P. minimum, micrographs (P. minimum [11]): broken or damaged or both; cell morphology of A. pacificum, micrographs (A. pacificum [12]): broken or damaged or both; decrease of quantum yield Fv/Fm of PSII in S. costatum (PSII in S. costatum): 27 fold; increase of ROS levels in P. minimum (P. minimum [13]): 5.4 fold; increase of ROS levels in S. costatum (S. costatum [14]): 3 fold; increase of MDA levels in P. minimum (P. minimum [5]): 2.3 fold; increase of MDA levels in S. costatum (S. costatum [6]): 2.2 fold

Source: article PMC11595864, “Design, Synthesis, and Evaluation of Novel Thiazole-Containing Algicides Inspired by Bacillamide A” (Marine Drugs, 2024)
